Test results: patent publication US20260226493A1, “HERBICIDE RESISTANT PLANTS” (SYNGENTA CROP PROTECTION AG, priority 2023, published 2026)

Assays:
Assay in all cases: biochemical
[1] = molecular target: T1, Arabidopsis thaliana BioDA variant enzymes (Arabidopsis thaliana, UniProt B0F481, F348C)
T1 construct: with the predicted N-terminal mitochondrial transit peptide removed; 6xHis-tag (N); thrombin cleavage site (N); made in house; host or cells: E. coli BL21 (DE3) bioA
Method: (§1) These plasmids were then expressed in E. coli BL21 (DE3) bioA with 50 μg/mL kanamycin and 25 μg/mL chloramphenicol selection. Overnight cultures grown at 37° C. were used to inoculate 8×500 mL AIM in shake flasks at a ratio of 1:100. Cultures were grown at 37° C., 200 rpm for 3.5 hours and then overnight at 20° C. Cells were harvested by centrifugation for 30 minutes at 10 000 g. Cells were stored at −80° C. until extraction. 30 g of cell pellet from was thawed in 120 mL of IMAC buffer A (20 mM HEPES pH7.5, 25 mM imidazole, 500 mM sodium chloride, 0.15 mM pyridoxal phosphate, 0.5 mM TCEP, 1× complete Protease Inhibitor Tablet (Roche)). The resuspension was passed through a cell disrupter at 18 000 PSI and centrifuged at 50 000 g for 25 minutes at 4° C. The His-tagged BIO3-BIO1 protein was purified from the extract supernatant on an AKTA avant chromatography system (Cytiva) using a HisTrap FF column and eluted in IMAC buffer B ((20 mM HEPES pH7.5, 500 mM imidazole, 500 mM sodium chloride, 0.15 mM pyridoxal phosphate, 0.5 mM TCEP) followed by SEC using a HiLoad 26/60 Superdex200 column in SEC buffer (25 mM HEPES pH7.5, 150 mM sodium chloride, 0.15 mM pyridoxal phosphate, 0.5 mM TCEP). Protein concentration was measured and calculated using the absorbance at 280 nm. Extracts were diluted 1 in 4 and 10 uL was analysed by SDS PAGE.
(§2) To measure BIO3-BIO1 mutant enzyme activity in the presence of herbicide, herbicides were incubated with 20 μL of enzyme mix (100 mM EPPS pH 8.6, 0.1 mM pyridoxal phosphate, 0.1 mg/mL BSA, 50 nM BIO3-BIO1 enzyme) for 10 minutes at 20° C. in a well of a 96-well half-area black plate, followed by the addition of 20 μL of substrate mix (final concentration of 100 mM EPPS pH 8.6, 0.1 mM pyridoxal phosphate, 0.1 mg/mL BSA, 100 μM spermidine, 20 μM KAPA, 100 mM NaCO3) and further incubation for 75 minutes at 20° C. The reaction was terminated by the addition of 50 μL of derivatisation mix (final concentration of 250 mM borate NaOH pH 9.4, 3.6 mM o-phthalaldehyde, 7 mM β-mercaptoethanol, 17% (v/v) ethanol, 3.6% (v/v) methanol). The fluorescent product produced by the reaction of DAPA with o-phthalaldehyde and 7 mM β-mercaptoethanol was measured at 470 nm after excitation at 410 nm.
(§3) For IC50 calculations, appropriate dose responses of compounds L, M, B, K and G were used. Calculated percentage inhibitions were then input into GraphPad Prism 7 and IC50s calculated using the non-linear regression (vs. normalised response) equation.

[2] = molecular target: T2, Arabidopsis thaliana BioDA variant enzymes (Arabidopsis thaliana, UniProt B0F481, C388T)
T2 construct: with the predicted N-terminal mitochondrial transit peptide removed; 6xHis-tag (N); thrombin cleavage site (N); made in house; host or cells: E. coli BL21 (DE3) bioA
Method: as §1, §2, §3

[3] = molecular target: T3, Arabidopsis thaliana BioDA variant enzymes (Arabidopsis thaliana, UniProt B0F481, P421L)
T3 construct: with the predicted N-terminal mitochondrial transit peptide removed; 6xHis-tag (N); thrombin cleavage site (N); made in house; host or cells: E. coli BL21 (DE3) bioA
Method: as §1, §2, §3

[4] = molecular target: T4, Arabidopsis thaliana BioDA variant enzymes (Arabidopsis thaliana, UniProt B0F481, W391L)
T4 construct: with the predicted N-terminal mitochondrial transit peptide removed; 6xHis-tag (N); thrombin cleavage site (N); made in house; host or cells: E. coli BL21 (DE3) bioA
Method: as §1, §2, §3

[5] = molecular target: T5, Arabidopsis thaliana BioDA variant enzymes (Arabidopsis thaliana, UniProt B0F481, W392G)
T5 construct: with the predicted N-terminal mitochondrial transit peptide removed; 6xHis-tag (N); thrombin cleavage site (N); made in house; host or cells: E. coli BL21 (DE3) bioA
Method: as §1, §2, §3

T3 sequence (B0F481 24-833 P421L): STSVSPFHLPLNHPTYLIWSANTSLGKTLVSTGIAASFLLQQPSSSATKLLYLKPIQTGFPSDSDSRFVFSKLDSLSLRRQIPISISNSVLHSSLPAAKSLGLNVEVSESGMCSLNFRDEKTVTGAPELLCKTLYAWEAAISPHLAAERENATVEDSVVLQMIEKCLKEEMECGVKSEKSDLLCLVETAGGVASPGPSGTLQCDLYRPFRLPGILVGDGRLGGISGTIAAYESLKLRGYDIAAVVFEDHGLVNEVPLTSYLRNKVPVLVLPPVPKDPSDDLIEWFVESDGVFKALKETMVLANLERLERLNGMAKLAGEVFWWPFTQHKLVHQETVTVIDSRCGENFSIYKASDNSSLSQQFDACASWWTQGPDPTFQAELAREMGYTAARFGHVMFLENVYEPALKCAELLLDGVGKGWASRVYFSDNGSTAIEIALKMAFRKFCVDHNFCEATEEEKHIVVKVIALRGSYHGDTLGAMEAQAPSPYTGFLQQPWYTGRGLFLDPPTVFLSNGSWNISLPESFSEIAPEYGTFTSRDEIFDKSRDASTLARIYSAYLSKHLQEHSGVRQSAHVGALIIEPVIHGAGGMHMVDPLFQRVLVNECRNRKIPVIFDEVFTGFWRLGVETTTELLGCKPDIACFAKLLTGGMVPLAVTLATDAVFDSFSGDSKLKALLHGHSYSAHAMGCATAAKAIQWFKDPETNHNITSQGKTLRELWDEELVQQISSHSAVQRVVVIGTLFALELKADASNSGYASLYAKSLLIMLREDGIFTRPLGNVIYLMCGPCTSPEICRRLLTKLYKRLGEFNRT
T5 sequence (B0F481 24-833 W392G): as the sequence (B0F481 24-833 P421L) above, with W369G, L398P counted along it
T4 sequence (B0F481 24-833 W391L): as the sequence (B0F481 24-833 P421L) above, with W368L, L398P counted along it
T2 sequence (B0F481 24-833 C388T): as the sequence (B0F481 24-833 P421L) above, with C365T, L398P counted along it
T1 sequence (B0F481 24-833 F348C): as the sequence (B0F481 24-833 P421L) above, with F325C, L398P counted along it

CCn1c(Cn2ccc(C(F)(F)F)n2)cc(=O)c(C(=O)O)c1-c1ccc(Cl)c(Cl)c1 [Compound L, 2-(3,4-dichlorophenyl)-1-ethyl-4-oxo-6-[[3-(trifluoromethyl)pyrazol-1-yl]methyl]pyridine-3-carboxylic acid]
IC50 [1]: 77.6 µM
IC50 [2]: 0.092 µM
IC50 [3]: 0.687 µM
IC50 [4]: 16.3 µM
IC50 [5]: 17.7 µM
